Legend:
Assay type in all cases: in vivo
Nilaparvata lugens [1] = experiment: Test Example 4: spray on rice seedling, release of Nilaparvata lugens larvae; settings: 144 h, read-out: Control value
Aphis gossypii [2] = experiment: Test Example 2: root immersion of cucumber seedling, then inoculation with Aphis gossypii; settings: 168 h; 500 ppm active ingredient; cucumber root part immersed in 5 ml; 30 Aphis gossypii inoculated one day after treatment; examined after further seven days
Description: A root part of a cucumber seedling (the first true leaf stage) from which soil had been washed off was immersed in 5 ml of each of the diluted solutions, and one day after treatment, on the cucumber leaf surface was inoculated with 30 Aphis gossypii (whole stage). After further seven days, the number of insect of living Aphis gossypii parasitized on the leaves of the cucumber was examined, and a control value was calculated according to the following equation: Control value (%)={1−(Cb×Tai)/(Cai×Tb))×100 wherein symbols represent as follows: Cb: the number of insects in a non-treated section before treatment, Cai: the number of insects in a non-treated section in observation, Tb: the number of insects in a treated-section before treatment, Tai: the number of insects in a treated-section in observation; wherein the non-treated section represents a section where the test diluted solution prepared by diluting the formulation without the present compound in Formulation Example 5 with the same amount of water as in the treated-section was used.

Nilaparvata lugens [3] = experiment: Test Example 5: drench at foot of rice seedling, release of Nilaparvata lugens larvae; settings: soil, 144 h; 500 ppm active ingredient; rice seedling drenched at its foot with 5 ml, kept 7 days; twenty third-fourth instar larvae of Nilaparvata lugens; examined after 6 days
Description: On the other hand, a rice seedling (2 weeks after sowing, the second leaf stage) planted in a plastic cup was drenched at its foot with 5 ml of each of the diluted solutions, and kept in a greenhouse of 25° C. for 7 days. Twenty third-fourth instar larvae of Nilaparvata lugens were released, and further kept in the greenhouse for 6 days, then the number of insect of living Nilaparvata lugens parasitized on the rice was examined, and a control value was calculated according to the following equation: Control value (%)={1−(Cb×Tai)/(Cai×Tb))×100 wherein symbols represent as follows: Cb: the number of insects in a non-treated section before treatment, Cai: the number of insects in a non-treated section in observation, Tb: the number of insects in a treated-section before treatment, Tai: the number of insects in a treated-section in observation; wherein the non-treated section represents a section where the test diluted solution prepared by diluting the formulation without the present compound in Formulation Example 5 with the same amount of water as in the treated-section was used.

Aphis gossypii [4] = experiment: Test Example 1: spray on cucumber seedling inoculated with Aphis gossypii; settings: topical, 144 h; 500 ppm active ingredient (Formulation Example 5 diluted with water); 20 ml sprayed on cucumber seedling with about 30 Aphis gossypii; six days after spraying
Description: On the other hand, on a cucumber seedling (the first true leaf stage) planted in a plastic cup was inoculated with about 30 Aphis gossypii, and leaving it for a day. Twenty ml of each of the above test spray solutions was sprayed on this seedling. Six days after spraying, the number of the surviving Aphis gossypii parasitized on the leaves of the cucumber was examined, and a control value was calculated according to the following equation: Control value (%)={1−(Cb×Tai)/(Cai×Tb))×100 wherein symbols represent as follows: Cb: the number of insects in a non-treated section before treatment, Cai: the number of insects in a non-treated section in observation, Tb: the number of insects in a treated-section before treatment, Tai: the number of insects in a treated-section in observation; wherein the non-treated section represents a section where the test spray solution prepared by diluting the formulation without the present compound in Formulation Example 5 with the same amount of water as in the treated-section was sprayed.

Bemisia tabaci = experiment: Test Example 6: spray on tomato seedling with Bemisia tabaci instar larvae; settings: 168 h; 500 ppm active ingredient; 20 ml/cup sprayed on tomato seedling with hatched Bemisia tabaci instar larvae; after 7 days at 25° C.
Description: On the other hand, Bemisia tabaci adult was released on a tomato seedling (the third true leaf stage) planted in a polyethylene cup, and made to lay eggs for about 72 hours. The tomato seedling was kept in a greenhouse for 8 days. When instar larvae hatched from the eggs, the above test spray solution was sprayed in the amount of 20 ml/cup. The cup was kept in a greenhouse at 25° C. After the keeping for 7 days, the number of surviving instar larvae on the tomato leaves was examined, and a control value was calculated according to the following equation: Control value (%)={1−(Cb×Tai)/(Cai×Tb))×100 wherein symbols represent as follows: Cb: the number of insects in a non-treated section before treatment, Cai: the number of insects in a non-treated section in observation, Tb: the number of insects in a treated-section before treatment, Tai: the number of insects in a treated-section in observation; wherein the non-treated section represents a section where the test spray solution prepared by diluting the formulation without the present compound in Formulation Example 5 with the same amount of water as in the treated-section was sprayed.

[5] = 500 ppm active ingredient, rice seedling sprayed with 10 ml, third-fourth instar larvae of Nilaparvata lugens, after 6 days at 25° C.

Structure (SMILES) | pest or weed control at 500 ppm (Nilaparvata lugens [1]; [5]) [%] | pest or weed control at 500 ppm (Aphis gossypii [2]) [%] | further results
CSc1ccccc1-c1nc2cc(C(F)(F)F)cnc2n1C [Present Compound 1, 3-methyl-2-(2-methylsulfanylphenyl)-6-trifluoromethyl-3H-imidazo[4,5-b]pyridine] | ≥ 90 | – | –
CC(C)Sc1ccccc1-c1nc2cc(C(F)(F)F)cnc2n1C [Present Compound 12, 2-(2-isopropylsulfanylphenyl)-3-methyl-6-trifluoromethyl-3H-imidazo[4,5-b]pyridine] | ≥ 90 | – | –
Cn1c(-c2ccccc2[S+]([O-])C(C)(C)C)nc2cc(C(F)(F)F)cnc21 (stereo not drawn) [Present Compound 16, 2-(2-tert-butylsulfinylphenyl)-3-methyl-6-trifluoromethyl-3H-imidazo[4,5-b]pyridine] | – | ≥ 90 | –
CCOCn1c(-c2ccccc2SCC)nc2cc(C(F)(F)F)cnc21 [Present Compound 33, 3-ethoxymethyl-2-(2-ethylsulfanylphenyl)-6-trifluoromethyl-3H-imidazo[4,5-b]pyridine] | – | ≥ 90 | –
CCOCn1c(-c2ccccc2SCC)nc2ncc(C(F)(F)F)cc21 [Present Compound 34, 1-ethoxymethyl-2-(2-ethylsulfanylphenyl)-6-trifluoromethyl-1H-imidazo[4,5-b]pyridine] | – | ≥ 90 | –
CCOCn1c(-c2ccccc2S(=O)(=O)CC)nc2cc(C(F)(F)F)cnc21 [Present Compound 36, 2-(2-ethylsulfonylphenyl)-3-ethoxymethyl-6-trifluoromethyl-3H-imidazo[4,5-b]pyridine] | – | ≥ 90 | –
CCS(=O)(=O)c1ccccc1-c1nc2cc(C(F)(F)F)cnc2n1COC [Present Compound 38, 2-(2-ethylsulfonylphenyl)-3-methoxymethyl-6-trifluoromethyl-3H-imidazo[4,5-b]pyridine] | – | – | pest or weed control at 500 ppm (Nilaparvata lugens [3]): ≥ 90%
CC[S+]([O-])c1ccccc1-c1nc2cc(Br)cnc2n1C (stereo not drawn) [Present Compound 43, 6-bromo-2-(2-ethylsulfinylphenyl)-3-methyl-3H-imidazo[4,5-b]pyridine] | – | ≥ 90 | –
CC[S+]([O-])c1ccccc1-c1nc2cc(I)cnc2n1C (stereo not drawn) [Present Compound 46, 2-(2-ethylsulfinylphenyl)-6-iodo-3-methyl-3H-imidazo[4,5-b]pyridine] | ≥ 90 | ≥ 90 | pest or weed control at 500 ppm (Aphis gossypii [4]): ≥ 90%
CC[S+]([O-])c1ccccc1-c1nc2cc(C#N)cnc2n1C (stereo not drawn) [Present Compound 49, 6-cyano-2-(2-ethylsulfinylphenyl)-3-methyl-3H-imidazo[4,5-b]pyridine] | – | – | pest or weed control at 500 ppm (Bemisia tabaci): ≥ 90%
CC[S+]([O-])c1ccccc1-c1nc2cc(C(F)F)cnc2n1C (stereo not drawn) [Present Compound 53, 6-difluoromethyl-2-(2-ethylsulfinylphenyl)-3-methyl-3H-imidazo[4,5-b]pyridine] | – | ≥ 90 | pest or weed control at 500 ppm (Aphis gossypii [4]): ≥ 90%
CCSc1ccccc1-c1nc2ncc(C(F)(F)F)cc2n1C [Present Compound 66, 2-(2-ethylsulfanylphenyl)-1-methyl-6-trifluoromethyl-1H-imidazo[4,5-b]pyridine] | – | ≥ 90 | pest or weed control at 500 ppm (Aphis gossypii [4]): ≥ 90%
CCSc1ccccc1-c1nc2cc(C(F)(F)F)ccc2n1C [Present Compound 68, 2-(2-ethylsulfanylphenyl)-1-methyl-5-trifluoromethyl-1H-benzimidazole] | ≥ 90 | – | –
CC[S+]([O-])c1ccccc1-c1nc2cc(C(F)(F)F)ccc2n1C (stereo not drawn) [Present Compound 69, 2-(2-ethylsulfinylphenyl)-1-methyl-5-trifluoromethyl-1H-benzimidazole] | ≥ 90 | ≥ 90 | –
CCS(=O)(=O)c1ccccc1-c1nc2cc(C(F)(F)F)ccc2n1C [Present Compound 70, 2-(2-ethylsulfonylphenyl)-1-methyl-5-trifluoromethyl-1H-benzimidazole] | – | ≥ 90 | –
CC[S+]([O-])c1ccccc1-c1nc2cc(C(F)(F)F)cc(Cl)c2n1C (stereo not drawn) [Present Compound 72, 7-chloro-2-(2-ethylsulfinylphenyl)-1-methyl-5-trifluoromethyl-1H-benzimidazole] | – | – | pest or weed control at 500 ppm (Aphis gossypii [4]): ≥ 90%
CC[S+]([O-])c1ccccc1-c1nc2cc(C(F)(F)F)cnc2o1 (stereo not drawn) [Present Compound 82, 2-(2-ethylsulfinylphenyl)-6-trifluoromethyloxazolo[5,4-b]pyridine] | – | ≥ 90 | –
CCS(=O)(=O)c1ccccc1-c1nc2cc(C(F)(F)F)cnc2o1 [Present Compound 83, 2-(2-ethylsulfonylphenyl)-6-trifluoromethyloxazolo[5,4-b]pyridine] | ≥ 90 | ≥ 90 | –
CSc1ccccc1-c1nc2cc(C(F)(F)F)ccc2s1 [Present Compound 84, 2-(2-methylsulfanylphenyl)-5-trifluoromethylbenzothiazole] | ≥ 90 | – | –
CCSc1ccccc1-c1nc2cc(C(F)(F)C(F)(F)C(F)(F)F)cnc2n1C [Present Compound 128, 2-(2-ethylsulfanyl-phenyl)-6-heptafluoropropyl-3-methyl-3H-imidazo[4,5-b]pyridine] | – | – | pest or weed control at 500 ppm (Nilaparvata lugens [1]; Nilaparvata lugens): ≥ 90%
CCSc1ccccc1-c1nc2ccc(C(F)(F)F)nc2n1C [Present Compound 151, 2-(2-ethylsulfanylphenyl)-3-methyl-5-trifluoromethyl-3H-imidazo[4,5-b]pyridine] | – | – | pest or weed control at 500 ppm (Aphis gossypii [4]): ≥ 90%
CC[S+]([O-])c1ccccc1-c1nc2nc(C(F)(F)F)ccc2n1C (stereo not drawn) [compound 167, 2-(2-ethylsulfinylphenyl)-1-methyl-5-trifluoromethyl-1H-imidazo[4,5-b]pyridine] | – | ≥ 90 | –
CCSc1ccccc1-c1nc2cc(C(F)(F)F)cnc2s1 [compound 183, 2-(2-ethylsulfanylphenyl)-6-(trifluoromethyl)thiazolo[5,4-b]pyridine] | – | – | pest or weed control at 500 ppm (Aphis gossypii [4]): ≥ 90%
CCS(=O)(=O)c1ccccc1-c1nc2cc(C(F)(F)F)cnc2s1 [compound 185, 2-(2-ethylsulfonylphenyl)-6-(trifluoromethyl)thiazolo[5,4-b]pyridine] | – | – | pest or weed control at 500 ppm (Nilaparvata lugens [3]): ≥ 90%
CCS(=O)(=O)c1ccccc1-c1nc2cc([S+]([O-])C(F)(F)F)cnc2n1C (stereo not drawn) [compound 214, 2-(2-ethylsulfonylphenyl)-6-trifluoromethylsulfinyl-3-methyl-3H-imidazo[4,5-b]pyridine] | – | – | pest or weed control at 500 ppm (Nilaparvata lugens [3]): ≥ 90%
CCSc1cc(Br)ccc1-c1nc2cc(C(F)(F)F)cnc2n1C [compound 238, 2-(4-bromo-2-ethylsulfanylphenyl)-3-methyl-6-trifluoromethyl-3H-imidazo[4,5-b]pyridine] | ≥ 90 | – | –
CCSc1cc(C(F)(F)F)ccc1-c1nc2cc(S(F)(F)(F)(F)F)ccc2n1C [compound 314, 2-(2-ethylsulfanyl-4-trifluoromethyl-phenyl)-1-methyl-5-(pentafluorosulphur)-1H-benzimidazole] | ≥ 90 | – | –

Source: patent publication US8853238B2, “Fused heterocyclic compound and use thereof for pest control” (Sumitomo Chemical Company, Limited, priority 2010, dated 2014)
